# Laboratory results taken from patent US20210252028A1, “SYNTHETIC COMPOSITION FOR MICROBIOTA MODULATION” (Glycom A/S, priority 2016, published 2021).
# Columns and labels:
# [1] = tested on: totality of B. longum + B. bifidum + B. animalis lactis + B. angulatum; assay: ITS profiling of the Bifidobacterium community in faeces of healthy adults after 2 weeks of HMO consumption; assay type: in vivo, human; details: faecal analyses
# Protocol: (§1) A total of 100 male and female healthy adults are recruited to participate in the study. After a screening visit and run-in period of 1-2 weeks, the participants are selected and randomized into ten groups, each of 10 subjects. One group is administered a placebo product containing 2 grams of glucose. The remaining 9 groups are administered treatment product containing a) 20 g of 2′-FL, b) 10 g of 2′-FL, c) 5 g of 2′-FL, d) 20 g of LNnT, e) 10 g of LNnT, f) 5 g of LNnT, g) 20 g of a 2:1 mixture of 2′-FL and LNnT, h) 10 g of a 2:1 mixture of 2′-FL and LNnT, and i) 5 g of a 2:1 mixture of 2′-FL and LNnT for 2 weeks (the amounts correspond to a daily dosis). The placebo and treatment products are in powder form in a unit dosage container.
# (§2) The study runs for 2 weeks with the participants consuming either a placebo or a treatment product daily. Participants are instructed to consume the products in the morning with breakfast. Compliance is monitored through the interactive internet enabled system.
# (§3) To assess the Bifidobacterium community, ITS profiling of DNA samples is performed according to Milani et al. FEMS Microbiol. Ecol. 90, 493 (2014). […] Both B. adolescentis and B. pseudocatenulatum are members of the B. adolescentis phylogenetic group. It can be seen that oral ingestion of the HMOs clearly increases the abundance of B. adolescentis and/or B. pseudocatenulatum in the microbiota of healthy adults, as well as their relative abundance compared to the totality of other Bifidobacterium species.
# [2] = tested on: B. adolescentis phylogenetic group; assay: as above; assay type: in vivo, human; details: for percentage increase of B. adolescentis phylogenetic group: healthy adults, 2 weeks, faecal analyses
# Protocol: as §1, §2, §3
Molecule,percentage increase of totality of B. longum + B. bifidum + B. animalis lactis + B. angulatum ([1]; daily dose 5 g),percentage increase of totality of B. longum + B. bifidum + B. animalis lactis + B. angulatum ([1]; daily dose 10 g),percentage increase of totality of B. longum + B. bifidum + B. animalis lactis + B. angulatum ([1]; daily dose 20 g),abundance of B. adolescentis and/or B. pseudocatenulatum and relative abundance compared to the totality of other Bifidobacterium species ([2]; healthy adults carrying the FUT2 mutation compared with secretors),percentage increase of B. adolescentis phylogenetic group ([2]; daily dose 5 g),percentage increase of B. adolescentis phylogenetic group ([2]; daily dose 10 g),percentage increase of B. adolescentis phylogenetic group ([2]; daily dose 20 g)
2′-fucosyllactose [2′-FL],0%,20%,15%,increases in a manner similar to those in secretors,50%,325%,120%
"CC(=O)N[C@H]1[C@H](O[C@H]2[C@@H](O)[C@@H](CO)O[C@@H](O[C@H]3[C@H](O)[C@@H](O)C(O)O[C@@H]3CO)[C@@H]2O)O[C@H](CO)[C@@H](O[C@@H]2O[C@H](CO)[C@H](O)[C@H](O)[C@H]2O)[C@@H]1O (mixture of isomers) [LNnT, lacto-N-neotetraose]",50%,130%,105%,,90%,195%,185%
